# Assay results taken from US4340539A, “Derivatives of 6-bromo penicillanic acid” (priority 1980, dated 1982).
# Where two headings read alike, the source gives them in different places.
# Key:
# S. pneumoniae = assay: Antibacterial activity (MIC); assay type: cell-based; details: Streptococcus pneumoniae; strain A-9585
# S. pyogenes = assay: Antibacterial activity (MIC); assay type: cell-based; details: Streptococcus pyogenes; strain A-9604
# S. aureus = assay: Antibacterial activity (MIC); assay type: cell-based; details: Staphylococcus aureus
# S. faecalis = assay: Antibacterial activity (MIC); assay type: cell-based; details: Enterococcus faecalis; strain A20688
# E. coli = assay: Antibacterial activity (MIC); assay type: cell-based; details: Escherichia coli
# K. pneumoniae = assay: Antibacterial activity (MIC); assay type: cell-based
# P. mirabilis = assay: Antibacterial activity (MIC); assay type: cell-based; details: Proteus mirabilis; strain A-9900
# P. vulgaris = assay: Antibacterial activity (MIC); assay type: cell-based; details: Proteus vulgaris; strain A21559
# P. morganii = assay: Antibacterial activity (MIC); assay type: cell-based; details: Morganella morganii; strain A15153
# P. rettgeri = assay: Antibacterial activity (MIC); assay type: cell-based; details: Providencia rettgeri; strain A21203
# S. marcescens = assay: Antibacterial activity (MIC); assay type: cell-based; details: Serratia marcescens; strain A20019
# E. cloacae = assay: Antibacterial activity (MIC); assay type: cell-based; details: Enterobacter cloacae
# P. aeruginosa = assay: Antibacterial activity (MIC); assay type: cell-based
# B. fragilis = assay: Anti-Bacteroides activity (MIC, agar dilution), alone and in combination with BL-P2013; assay type: cell-based
# B. thetaiotaomicron = assay: as above; assay type: cell-based
# Description: *Minimum inhibitory concentration (MIC) determined by the agar dilution
# method using 50X dilutions of 24 hour cultures as inocula dispensed by th
# Steer's inoculator. Assay medium composed of Brucella Agar plus 5% laked
# sheep blood and 10 mcg/ml vitamin K.
# Bacteroides species = assay: as above; assay type: cell-based
# S. aureus A-9606 = assay: Therapeutic efficacy in mice experimentally infected with a beta-lactamase strain of Staphylococcus aureus (Table 3); assay type: in vivo; details: for ED50: Staphylococcus aureus, A9606, challenge 5 × 10^8, read-out: PD50/Treatment
# Description: Treatment schedule: Drugs administered 0 and 2 hours postinfection.
# [1] = Blood levels after oral administration to mice (Table 4); assay type: in vivo; details: mouse; for concentration at 0.5 h: 30 min; for concentration at 1 h: 60 min; for concentration at 2 h: 120 min
# [2] = test system: β-lactamase producing strains of E. coli; assay: animal or person; assay type: in vivo, mice; details: Escherichia coli, in Mus musculus, po
# Description: (§1) Drugs were administered orally at 0 and 2 hours postinfection.
# (§2) Drugs were suspended in TCMC.
# [3] = test system: β-lactamase producing strains of S. aureus; assay: animal or person; assay type: in vivo, mice; details: Staphylococcus aureus, in Mus musculus, po
# Description: as §1, §2
# β-lactamases = assay: Inhibition of β-lactamases; assay type: biochemical
# bacteria = assay: Antibacterial activity (statement); assay type: cell-based
# [4] = test system: β-lactamase-producing bacteria; assay: Protection of ceforanide and amoxicillin from destruction by β-lactamase-producing bacteria; details: in vitro and in vivo, in combination
# [5] = 100 mg/kg, oral 100 mg/kg, assay organism E. coli A-9675, read-out: Blood level
# [6] = 100 mg/kg, oral 100 mg/kg, assay organism S. aureus A-9606, read-out: Blood level
# [7] = 200 mg/kg, oral 200 mg/kg, assay organism S. aureus A-9606, read-out: Blood level
smiles,measurement,setting,value
"CC1(CCl)C(C(=O)O)N2C(=O)CC2S1(=O)=O (stereo not drawn) [BL-P2013, Potassium 2β-Chloromethyl-2α-methylpenam-3α-carboxylate Sulfone]",MIC,S. pneumoniae,16 mg/L
same,MIC,S. pyogenes,63 mg/L
same,MIC,"S. aureus; strain A15097, Meth-Res",> 125 mg/L
same,MIC,S. aureus; strain A-9537,> 125 mg/L
same,MIC,"S. aureus; strain A-9537, + 50% serum",> 125 mg/L
same,MIC,"S. aureus; strain A-9606, Pen-Res",> 125 mg/L
same,MIC,S. faecalis,> 125 mg/L
same,MIC,E. coli; strain A15119,> 125 mg/L
same,MIC,E. coli; strain A20341-1,> 125 mg/L
same,MIC,"K. pneumoniae; Klebsiella pneumoniae, strain A15130, read-out: MIC",> 125 mg/L
same,MIC,K. pneumoniae; strain A20468,> 125 mg/L
same,MIC,P. mirabilis,> 125 mg/L
same,MIC,P. vulgaris,> 125 mg/L
same,MIC,P. morganii,> 125 mg/L
same,MIC,P. rettgeri,> 125 mg/L
same,MIC,S. marcescens,> 125 mg/L
same,MIC,E. cloacae; strain A-9656,> 125 mg/L
same,MIC,E. cloacae; strain A-9659,> 125 mg/L
same,MIC,"P. aeruginosa; Pseudomonas aeruginosa, strain A-9843A, read-out: MIC",> 125 mg/L
same,MIC,P. aeruginosa; strain A21213,> 125 mg/L
same,MIC,"B. fragilis; strain A21875, β-lactamase +",63 mg/L
same,MIC,"B. fragilis; strain A21916, β-lactamase +, read-out: MIC",> 125 mg/L
same,MIC,"B. fragilis; strain A22021, β-lactamase +, read-out: MIC",32 mg/L
same,MIC,"B. fragilis; strain A22053, β-lactamase +",63 mg/L
same,MIC,"B. fragilis; strain A22533, β-lactamase +, read-out: MIC",32 mg/L
same,MIC,"B. fragilis; strain A22534, β-lactamase +, read-out: MIC",125 mg/L
same,MIC,"B. fragilis; strain A22535, β-lactamase +, read-out: MIC",125 mg/L
same,MIC,"B. fragilis; strain A22693, β-lactamase +",63 mg/L
same,MIC,"B. fragilis; strain A22694, β-lactamase +",63 mg/L
same,MIC,"B. fragilis; strain A22695, β-lactamase +, read-out: MIC",32 mg/L
same,MIC,"B. fragilis; strain A22696, β-lactamase +",63 mg/L
same,MIC,"B. fragilis; strain A22697, β-lactamase +",63 mg/L
same,MIC,"B. fragilis; strain A22792, β-lactamase +, read-out: MIC",32 mg/L
same,MIC,"B. fragilis; strain A22793, β-lactamase +, read-out: MIC",32 mg/L
same,MIC,"B. fragilis; strain A22794, β-lactamase +, read-out: MIC",32 mg/L
same,MIC,"B. fragilis; strain A22795, β-lactamase +, read-out: MIC",32 mg/L
same,MIC,"B. fragilis; strain A22797, β-lactamase +",63 mg/L
same,MIC,"B. fragilis; strain A22798, β-lactamase +",63 mg/L
same,MIC,"B. thetaiotaomicron; Bacteroides thetaiotaomicron, strain A22277, β-lactamase +, read-out: MIC",63 mg/L
same,MIC,"B. thetaiotaomicron; strain A22279, β-lactamase +",63 mg/L
same,MIC,Bacteroides species; Bacteroides,63 mg/L
same,MIC,"Bacteroides species; Bacteroides, strain A20929, β-lactamase +, read-out: MIC",32 mg/L
same,MIC,"Bacteroides species; Bacteroides, strain A20930, β-lactamase +, read-out: MIC",125 mg/L
same,MIC,"Bacteroides species; Bacteroides, strain A20931, β-lactamase +, read-out: MIC",32 mg/L
same,MIC,"Bacteroides species; Bacteroides, strain A20934, β-lactamase +, read-out: MIC",32 mg/L
same,MIC,"Bacteroides species; Bacteroides, strain A20935, β-lactamase -, read-out: MIC",125 mg/L
same,MIC,"Bacteroides species; Bacteroides, strain A21959, β-lactamase +, read-out: MIC",32 mg/L
same,MIC,"Bacteroides species; strain A20927-1, β-lactamase -",63 mg/L
same,MIC,"Bacteroides species; strain A20933, β-lactamase +",63 mg/L
same,PD50/Treatment,"S. aureus A-9606; IM, challenge 7 × 10^8",> 50 mg/kg
same,ED50,S. aureus A-9606; IM,> 50 mg/kg
same,ED50,S. aureus A-9606; PO,> 200 mg/kg
same,concentration at […],"[1]; 100 mg/kg, oral 100 mg/kg, 15 min, assay organism E. coli A-9675, read-out: Blood level",4.5 µg/mL
same,concentration at […],"[1]; 100 mg/kg, oral 100 mg/kg, 15 min, assay organism S. aureus A-9606, read-out: Blood level",4.6 µg/mL
same,concentration at 0.5 h,[1]; [5],5.1 µg/mL
same,concentration at 0.5 h,[1]; [6],4.1 µg/mL
same,concentration at 1 h,[1]; [6],3 µg/mL
same,concentration at […],"[1]; 100 mg/kg, oral 100 mg/kg, 90 min, assay organism E. coli A-9675, read-out: Blood level",2.3 µg/mL
same,concentration at […],"[1]; 100 mg/kg, oral 100 mg/kg, 90 min, assay organism S. aureus A-9606, read-out: Blood level",< 2.6 µg/mL
same,concentration at 2 h,[1]; [5],1.5 µg/mL
same,concentration at 2 h,[1]; [6],< 2.6 µg/mL
same,concentration at […],"[1]; 100 mg/kg, oral 100 mg/kg, 150 min, assay organism S. aureus A-9606, read-out: Blood level",< 2.6 µg/mL
same,half-life,"[1]; 100 mg/kg, oral 100 mg/kg, assay organism E. coli A-9675",50 min
same,concentration at […],"[1]; 200 mg/kg, oral 200 mg/kg, 15 min, assay organism S. aureus A-9606, read-out: Blood level",7.4 µg/mL
same,concentration at 0.5 h,[1]; [7],9.8 µg/mL
same,concentration at 1 h,[1]; [7],7.1 µg/mL
same,concentration at […],"[1]; 200 mg/kg, oral 200 mg/kg, 90 min, assay organism S. aureus A-9606, read-out: Blood level",4.1 µg/mL
same,concentration at 2 h,[1]; [7],2.8 µg/mL
same,concentration at […],"[1]; 200 mg/kg, oral 200 mg/kg, 150 min, assay organism S. aureus A-9606, read-out: Blood level",< 2.6 µg/mL
same,half-life,"[1]; 200 mg/kg, oral 200 mg/kg, assay organism S. aureus A-9606",50 min
same,ED50,"[2]; read-out: PD50/Treatment, oral, E. coli A9675, challenge 6 × 10^5",> 200 mg/kg
same,ED50,"[2]; read-out: PD50/Treatment, oral, E. coli A9675, challenge 7 × 10^5",> 100 mg/kg
same,ED50,"[2]; read-out: PD50/Treatment, oral, E. coli A9675, challenge 8 × 10^5",> 200 mg/kg
same,ED50,"[2]; read-out: PD50/Treatment, oral, E. coli A20649, challenge 5 × 10^5",> 200 mg/kg
same,ED50,"[2]; read-out: PD50/Treatment, oral, E. coli A20649, challenge 6 × 10^5",> 200 mg/kg
same,ED50,"[2]; read-out: PD50/Treatment, oral, E. coli A21223, challenge 6 × 10^5",> 200 mg/kg
same,ED50,"[2]; read-out: PD50/Treatment, oral, E. coli A21223, challenge 7 × 10^5 (first line)",> 200 mg/kg
same,ED50,"[2]; read-out: PD50/Treatment, oral, E. coli A21223, challenge 7 × 10^5 (third line)",> 200 mg/kg
same,ED50,"[3]; read-out: PD50/Treatment, oral, S. aureus A9606, challenge 2 × 10^9",> 200 mg/kg
same,ED50,"[3]; read-out: PD50/Treatment, oral, S. aureus A9606, challenge 7 × 10^8",> 200 mg/kg
same,ED50,"[3]; read-out: PD50/Treatment, oral, S. aureus A15091, challenge 4 × 10^8",> 200 mg/kg
same,ED50,"[3]; read-out: PD50/Treatment, oral, S. aureus A15091, challenge 5 × 10^8",> 200 mg/kg
same,ED50,"[3]; read-out: PD50/Treatment, oral, S. aureus A20379, challenge 5 × 10^8",> 200 mg/kg
same,ED50,"[3]; read-out: PD50/Treatment, oral, S. aureus A20379, challenge 6 × 10^8",174 mg/kg
same,β-lactamase inhibition,β-lactamases,inhibits β-lactamases
same,antibacterial activity,bacteria,at best a very weak antibacterial agent
same,protection of ceforanide and amoxicillin from destruction,[4],protected ceforanide and amoxicillin from destruction by β-lactamase-producing bacteria in vitro and in vivo
